Measured values from patent US8377867B2, “Use of epinecidin-1 peptides and anti-lipopolysaccharide factor peptides for treating microbial infection” (Academia Sinica, priority 2009, dated 2013).
Bridge positions count the residues as written; N and C are the ends. Ends that are not written are not given here. Peptide text beside a SMILES is read from it.

Assays:
[1] = system: T. vaginalis cells (ATCC 50148 and T1); assay: Scanning electron microscopy of T. vaginalis morphology; format: cell-based, Trichomonas vaginalis; conditions: ATCC 50148 and T1 cells, peptide 100 or 200 μg/ml, 1, 4 and 16 hours
Method: The effect of the three peptides on morphology of T. vaginalis cells was examined by scanning electron microscopy (SEM) and transmission electron microscopy (TEM) as follows. Cells of the ATCC 50148 and T1 strains were cultured in a 96-well cell culture plate (1×10^4 cells/well). The ATCC 50148 cells were treated with Epinecidin-122-42 (100 μg/ml), csSALF55-76 (100 μg/ml), or 1sSALF122-42 (200 μg/ml) for 1, 4, and 16 hours and the T1 cells were treated with Epinecidin-122-42 (100 μg/ml), csSALF55-76 (200 μg/ml), or 1sSALF122-42 (100 μg/ml) for the same periods. T. vaginalis cells treated with PBS were used as a control. The treated cells were then analyzed by SEM. […] A large amount of cell debris was also observed in the peptide-treated cells.

[2] = system: T. vaginalis cells (ATCC 50148 and T1); assay: Transmission electron microscopy of T. vaginalis morphology; format: cell-based, Trichomonas vaginalis; conditions: ATCC 50148 and T1 cells, 16 hours, peptide 150-250 (Epinecidin 150 μg/ml, csSALF 250 mg/ml, lsSALF 150 or 200 μg/ml)
Method: The T. vaginalis cells mentioned above were also subjected to TEM analysis as described in Pan et al., DNA Cell Biol. 26:403-413 (2007). Briefly, the ATCC 50148 cells (2×10^4) were treated for 16 hours with Epinecidin-122-42 at a concentration of 150 μg/ml, csSALF55-76 at a concentration of […], and 1sSALF122-42 at a concentration of 150 μg/ml; the T1 cells (2×10^4) were treated for 16 hours with Epinecidin-122-42 at a concentration of 150 μg/ml, csSALF55-76 at a concentration of […], and 1sSALF122-42 at a concentration of 200 μg/ml. T. vaginalis cells treated with PBS were used as a control. Morphology of the treated cells was observed using a transmission electron microscope (Hitachi, H-7000, Tokyo, Japan) at 75 kV; see Pan et al., DNA Cell Biol. 26:403-413 (2007).

[3] = system: T. vaginalis cells (ATCC 50148 and T1); assay: T. vaginalis cell viability, trypan blue exclusion assay; format: cell-based, Trichomonas vaginalis
Method: Finally, the numbers of viable T. vaginalis cells after peptide treatment were counted following the method described in Ofer et al., Int. J. Parasitol., 38:959-968 (2008). Briefly, cells of ATCC 50148 and T1 were treated with each of the three peptides mentioned above at 25, 50, 100, or 200 μg/ml for 1, 4, and 16 h (overnight), then the viability was analyzed. Cell viability was then determined by the conventional trypan blue exclusion assay. […] More than 60% T1 cells died after being treated with this peptide at a concentration of 50 μg/ml for one hour.

T. vaginalis cells = assay: EtBr/acridine orange staining of T. vaginalis cells, epifluorescence microscopy; format: cell-based, Trichomonas vaginalis; conditions: peptide 200 μg/ml co-treated with metronidazole 100 μg/ml, 16 hours
Method: T. vaginalis cells (4000 cells/well) were co-treated with metronidazole (100 μg/ml) and Epinecidin-122-42 (200 μg/ml), csSALF55-76 (200 μg/ml), or 1sSALF122-42 (200 μg/ml) for 16 hours. Both metronidazole and the peptides were dissolved in PBS. The T. vaginalis cells were then stained with cold PBS containing 1 μg/ml ethidium bromide (EtBr) and 1 μg/ml acridine orange (AO) for 10 minutes and examined by epifluorescence microscopy.

[4] = system: Propionibacterium acnes (BCRC #10723); format: cell-based
Method: Propionibacterium acnes (BCRC #10723) cells were cultured under the conditions recommended by Bioresource Collection and Research Centre (BCRC) in Taiwan (see bcrc.firdi,org.tw:819/bcrc/indexe.htm). Their growth inhibition by Epinecidin-122-42 was determined following the method described in Pan et al., DNA Cell Biol. 26:403-413 (2007). The minimum inhibitory concentration of this peptide against P. acnes was 200 μg/ml.

[5] = system: Propionibacterium acnes (BCRC #10723); assay: SEM and TEM of P. acnes morphology; format: cell-based; conditions: P. acnes BCRC #10723, peptide 100 μg/ml in PBS
Method: The effect of Epinecidin-122-42 on P. acnes morphology was examined by SEM and TEM as follows. BCRC #10723 cells were seeded in a 6-well plate (1×10^4 cells per well), cultured for a sufficient period, collected by centrifugation, and re-suspended in PBS to reach an OD550 value of 1.0. The bacterial suspension was mixed with a freshly prepared PBS solution containing the peptide at a concentration of 100 μg/ml or PBS as a control.

[6] = system: C. albicans strain BCRC #20511; format: cell-based, Candida albicans
Method: Cells of C. albicans strain BCRC #20511 were cultured following the protocol provided by BCRC. These cells were treated with peptide Epinecidin-122-42 at various concentrations and their growth inhibition was examined following the method disclosed in Pan et al., Int. Immunopharmacol. 7:687-700 (2007).

[7] = system: C. albicans strain BCRC #20511; assay: SEM and TEM of C. albicans morphology; format: cell-based, Candida albicans; conditions: C. albicans BCRC #20511, peptide 50 μg/ml
Method: The effect of Epinecidin-122-42 (50 μg/ml) on C. albicans cell morphology was analyzed by SEM and TEM following the methods mentioned above.

[8] = ATCC 50148 cells, 50 μg/ml, four hours

Compound | Cell morphology by SEM [1] | Cell morphology by TEM [2] | Cells died after treatment [3, 8] | Cells died after treatment ([3]; T1 cells, 25 μg/ml, 16 hours) | Effect on cellular and nuclear membranes (EtBr/AO red color in nuclei) (T. vaginalis cells) | Minimum inhibitory concentration [4] [µg/mL] | Cell morphology by SEM and TEM [5] | Viable cells after treatment ([3]; ATCC 50148 cells, 25 μg/ml, one hour) | Viable cells after treatment ([3]; T1 cells, 25 μg/ml, four hours) | Cells died after treatment ([3]; T1 cells, 50 μg/ml, one hour) | Cell growth inhibition ([6]; C. albicans BCRC #20511, various concentrations) | Minimum inhibitory concentration ([6]; strain BCRC #20511) [µg/mL] | Cell morphology by SEM and TEM [7]
CSCC[C@H](NC(=O)[C@H](CCCNC(=N)N)NC(=O)CNC(=O)[C@H](CCCCN)NC(=O)[C@H](Cc1ccc(O)cc1)NC(=O)[C@H](Cc1ccc(O)cc1)NC(=O)[C@@H](NC(=O)[C@H](CCC(N)=O)NC(=O)[C@H](Cc1ccccc1)NC(=O)[C@H](CCCNC(=N)N)NC(=O)[C@H](CCCCN)NC(=O)[C@H](CC(C)C)NC(=O)[C@H](Cc1ccc(O)cc1)NC(=O)[C@@H]1CCCN1C(=O)[C@H](CCCCN)NC(=O)[C@@H](NC(=O)[C@@H](NC(=O)[C@H](Cc1ccccc1)NC(=O)[C@H](CCCCN)NC(=O)[C@H](CS)NC(=O)[C@@H](N)CCC(=O)O)[C@@H](C)O)C(C)C)C(C)C)C(=O)N[C@@H](Cc1c[nH]c2ccccc12)C(=O)N[C@@H](CS)C(=O)N1CCC[C@H]1C(=O)O [ls-SALF55-76] (H-ECKFTVKPYLKRFQVYYKGRMWCP-OH; N-terminus and C-terminus assumed) | damaged cell membranes and distorted cell shape | significantly disrupted the intact structure | most ATCC 50148 cells died | most T1 cells died | destroyed the cellular and nuclear membranes |  |  |  |  |  |  |  | 
CSCC[C@@H]1NC(=O)[C@H](CCCNC(=N)N)NC(=O)CNC(=O)[C@H](CCCCN)NC(=O)[C@H](Cc2ccc(O)cc2)NC(=O)[C@H](Cc2ccc(O)cc2)NC(=O)[C@H](C(C)C)NC(=O)[C@H](CCC(N)=O)NC(=O)[C@H](Cc2ccccc2)NC(=O)[C@H](CCCNC(=N)N)NC(=O)[C@H](CCCCN)NC(=O)[C@H](CC(C)C)NC(=O)[C@H](Cc2ccc(O)cc2)NC(=O)[C@@H]2CCCN2C(=O)[C@H](CCCCN)NC(=O)[C@H](C(C)C)NC(=O)[C@H]([C@@H](C)O)NC(=O)[C@H](Cc2ccccc2)NC(=O)[C@H](CCCCN)NC(=O)[C@@H](NC(=O)[C@H](CCC(=O)O)NC(C)=O)CSSC[C@@H](C(=O)N2CCC[C@H]2C(N)=O)NC(=O)[C@H](Cc2c[nH]c3ccccc23)NC1=O [cs-SALF55-76] (Ac-ECKFTVKPYLKRFQVYYKGRMWCP-NH2; disulfide 2-23; N-terminus and C-terminus assumed) | damaged cell membranes and distorted cell shape | significantly disrupted the intact structure | most ATCC 50148 cells died | most T1 cells died | destroyed the cellular and nuclear membranes |  |  |  |  |  |  |  | 
GFIFHIIKGLFHAGKMIHGLV-NH2 [Epinecidin-122-42] | damaged cell membranes and distorted cell shape | significantly disrupted the intact structure |  |  | destroyed the cellular and nuclear membranes | 200 | destroyed the outer membranes of P. acnes cells | No viable cells | No viable cells | More than 60% | significantly inhibited C. albicans cell growth | 25 | irregular shape and disrupted outer/intracellular membranes
